Key:
PPARγ = biological target: T1, PPARγ (Homo sapiens, UniProt P37231); assay: PPARγ CALUX reporter gene assay; type: cell-based; design: key: –: no effect observed up to the highest test concentration; settings: PC10, 24 h exposure
T1 construct: expression construct for the full-length human receptor under investigation; expressed in transfected cells; host or cells: human U2-OS cells (ATCC HTB-96), stably transfected
T1 sequence (P37231 1-505): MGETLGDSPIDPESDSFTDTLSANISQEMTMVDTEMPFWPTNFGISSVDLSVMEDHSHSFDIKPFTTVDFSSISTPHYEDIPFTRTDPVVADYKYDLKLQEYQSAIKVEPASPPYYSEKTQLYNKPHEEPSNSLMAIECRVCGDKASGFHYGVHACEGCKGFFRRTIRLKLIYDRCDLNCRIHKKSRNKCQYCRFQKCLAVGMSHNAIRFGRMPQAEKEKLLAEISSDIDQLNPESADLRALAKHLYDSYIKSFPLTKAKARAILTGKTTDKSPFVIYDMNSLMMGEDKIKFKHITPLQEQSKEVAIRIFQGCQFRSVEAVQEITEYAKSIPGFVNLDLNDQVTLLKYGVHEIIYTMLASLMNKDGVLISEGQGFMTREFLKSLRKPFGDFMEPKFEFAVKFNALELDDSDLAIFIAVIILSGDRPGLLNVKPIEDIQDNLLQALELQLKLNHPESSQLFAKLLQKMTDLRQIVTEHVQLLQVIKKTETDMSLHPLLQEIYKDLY
Excerpt: (§1) 2-methylimidazole 99.0%, zinc(II) nitrate hexahydrate ≥99.0%, para-cymene 99.0%, 1,4-dioxane 99.8% (anhydrous), 4-nitroaniline ≥99.0%, 1-octanol ≥99.0%, diglyme ≥99.0%, DMSO-d6 (99.8% D) and chloroform-d (99.8% D) were purchased from Sigma-Aldrich. Toluene ≥99.0%, hexane ≥99.5%, DCM ≥99.5%, chloroform ≥99.5%, DMSO ≥99.0% were purchased from VWR. N,N-diethyl-4-nitroaniline ≥98.0% was purchased from Alfa Aeser. Cyrene was supplied by Circa group. N-butylpyrrolidinone was supplied by Eastman chemicals. N,N-dimethylformamide 99.9% and N,N-dimethylacetamide 99.9% were purchased from Fischer. The flakes of Ultrason® E3020 P Polyarylethersulfone of 55,000 Da were obtained from INGE.BASF, Germany. The CALUX cell lines have been described previously.[1] They are based on human U2-OS cells (ATCC, HTB-96) stably transfected with an expression construct for the full-length human receptor under investigation, and a reporter construct consisting of multimerized responsive elements for the cognate receptor coupled to a minimal promoter element (TATA) and a luciferase gene. Cells were maintained as described previously,[2] using cell culture media and supplements from Fisher Scientific as described in the experimental procedures section. […]
(§2) In vitro reporter gene assays
(§3) The automated CALUX assays were carried out similarly as described earlier,[12] with some adaptations. In brief, the assay was performed in CO2 independent medium (Fisher Scientific, […]
(§4) supplement (Fisher Scientific, 11574466), 10 U/mL penicillin and 10 µg/mL streptomycin. A cell suspension in assay medium was made of 1 × 10^5cells/mL, and white 384-wells plates were seeded with 30 µl cell suspension/well. After 24 h, exposure medium was prepared. A dilution series in 0.5log unit increments of each test compound (in DMSO) was added to a 96-wells plate containing assay medium (2% v/v). Of this exposure mixture, 30 µl was added to the assay plates containing the CALUX cells, resulting in a final DMSO concentration of 1%. Additionally, DMSO blanks and a full dose response curve of the relevant reference compound were included on each plate. All samples were tested in triplicate. The preparation of the compound dilution series as well as the exposure of the cells were performed on a Hamilton StarLET liquid handling robot coupled to a Cytomat incubator.
(§5) Directly after exposure, plates were sealed with non-breathing plate seals (Plate sealer, easy seal transparent; Greiner-Bio-One, 676001). After 24 h the exposure medium was removed using an EL406 washer-dispenser (BioTek) and 10 µl/well triton lysisbuffer was added by the EL406.
Subsequently, the luciferase signal was measured in a luminometer (InfinitePro coupled to a Connect Stacker, both TECAN). In order to be able to detect receptor antagonism, several assays were also performed in antagonistic mode. […]
The luminometer data was analysed as follows; the average of the triplicate wells was determined, and the average blank (DMSO) value was subtracted. […] For antagonist- and cytotoxicity experiments, PC20 values were determined instead, which was defined as the concentration where the test compound causes a 20% decrease in the basal signal, which was […]
curve, the signal induction above background (DMSO) was determined, and the concentration where the compound elicited a 1.5-fold increase above background was used as LEC.

TCF = TCF CALUX assay (Wnt signaling); type: cell-based, human; design: key: –: no effect observed up to the highest test concentration; settings: cell signaling pathway assay, 24 h exposure
Excerpt: Six of the CALUX assays (TCF through p53) detect activation of several cellular signaling pathways, which are indicative of general stress and acute toxicity, but also a range of more specific types of toxicity, including reproductive toxicity. […]
as §1, §2, §3, §4, §5
Subsequently, the luciferase signal was measured in a luminometer (InfinitePro coupled to a Connect Stacker, both TECAN). In order to be able to detect receptor antagonism, several assays were also performed in antagonistic mode. The assay procedure was as described above, with the only exception that the EC50 concentration of the reference agonist was present during the exposure.
The luminometer data was analysed as follows; the average of the triplicate wells was determined, and the average blank (DMSO) value was subtracted. […] For antagonist- and cytotoxicity experiments, PC20 values were determined instead, which was defined […]

| Compound | LEC PPARγ (PPARγ) | LEC TCF (TCF) |
| --- | --- | --- |
| CCCCN(CC)C(=O)CCC(=O)N(CC)CCCC [EBSA, N,N′‐diethyl‐N,N′‐dibutylsuccindiamide] | – | – |
| CCCCN(C)C(=O)CCC(=O)N(C)CCCC [MBSA, N,N′‐dimethyl‐N,N′‐dibutylsuccindiamide] | – | – |
| CCCCN1CCCC1=O [NBP, N‐Butylpyrrolidinone, reference compound] | – | – |
| CN1CCCC1=O [NMP, N‐methyl‐2‐pyrrolidone, reference compound] | – | −2.1 Log M |
| CCCCN(CCCC)C(=O)CCC(=O)N(CCCC)CCCC [TBSA, N,N,N′,N′‐tetrabutylsuccindiamide] | – | – |

Reference: PMC7318222, “A Family of Water‐Immiscible, Dipolar Aprotic, Diamide Solvents from Succinic Acid” (Chemsuschem, 2020)
